# Measured values: patent publication US6822112B1, “Prostaglandin derivatives” (Taisho Pharmaceutical Co., Ltd., priority 1999, dated 2004)
# Test system: EBTr [NBL-4] cell derived from bovine embryonic trachea
# Test: Measurement of cAMP production promoting action in EBTr [NBL-4] cell
# Assay type: cell-based
# Settings: 1 × 10^−9 M concentration of compound added; EBTr [NBL-4] cells, 15 minutes with 0.5 mM 3-isobutyl-1-methylxanthine; cAMP EIA
# Protocol: Measurement of cAMP production promoting action in EBTr [NBL-4] cell derived from bovine embryonic trachea
# According to the method of Ito et al. in Br. J. Pharmacol., vol. 99, page 13 (1990), the following test was carried out.
# That is, EBTr [NBL-4] cells derived from bovine embryonic trachea (produced by Dainippon Pharmaceutical Co.) were inoculated on 24-well plates (6×10^4 cells/well) (manufactured by Sumitomo Bakelite Co.), and cultured on a growth medium (MEM Earle's medium including 10% calf serum, 2 mM glutamine and non-essential amino acids) for 48 hours, followed by cultivation on 0.5 ml of a growth medium including the test compound and 0.5 mM 3-isobutyl-1-methylxanthine for 15 minutes. After the completion of the reaction, the cells were washed with a phosphate buffer (not including Ca^++ and Mg^++), 0.6 ml of 65% aqueous ethanol solution was added, followed by allowing to stand at 4° C. for an hour, and the resulting cAMP was extracted. After evaporation of the solvent by a centrifugal evaporator, the amount of cAMP was measured by using a cAMP EIA System (manufactured by Amersham Co.).
structure (smiles),measurement,value
"O=C(O)c1ccc(CCCC2C(Cl)CC(O)C2C#CC(O)C2CCCCC2)cc1 (stereo not drawn) [Compound 35, 9-Deoxy-9β-chloro-2,3,4,16,17,18,19,20-octanor-1,5-inter-p-phenylene-15-cyclohexyl-13,14-didehydro-PGF1α]",cAMP production promoting action (percent to PGD2),150 percent to PGD2
